Each structure is given as a SMILES string. pIC50: −log10 of the molar value. Read-outs that look alike come from different tables or passages of the source.

The results in this text go back to US20140179681A1, “METHODS AND COMPOSITIONS OF TARGETED DRUG DEVELOPMENT” (priority 2010, published 2014).

This assay concerns MDBK line. Nature of the assay: MTT Cell Proliferation Assay, MDBK cells. In kind it is cell-based, bovine. The method, boiled down:
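Viability was measured by mitochondrial MTT reduction after cells were exposed to compound for 3 days in reduced-serum medium. Inhibition was calculated per plate against 0.5% DMSO controls.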

`CCc1cc2c(CN3CCN(Cc4ccc5c(c4)OCO5)CC3)cc(=O)oc2cc1O` [AD4-1734]: the pIC50 (Bos taurus, MDBK, Table 11, second of x/y(ratio): MDBK, unit inferred, read-out: MTT Follow-up (second value)) was 4.40. Also, the IC50 (Bos taurus, MDBK, Table 11, second of x/y(ratio): MDBK, unit not printed (doses in μM), read-out: MTT Screen (second value)) came out at 42.5 µM. Besides, the “activity in MDBK cells” value is, setting by setting: (standard at 23.5 μM final concentration) 0; (standard at 31.125 μM final concentration) “less than 50%”.
